Source: patent US12509452B2, “Substituted-isoxazoline-containing aromatic compound, preparation method therefor, herbicidal composition and use thereof” (QINGDAO KINGAGROOT CHEMICAL COMPOUND CO., LTD., priority 2019, dated 2025)

How the values were obtained:
Test in all cases: weeding effect in post-emergence stage
Type in all cases: in vivo
Rorippa indica = tested on: Rorippa indica
Text: (§1) The activity level criteria for plant damage (i.e., growth control rate) are as follows: • Level 5: growth control rate is above 85%; • Level 4: growth control rate is greater than or equal to 60% and less than 85%; • Level 3: growth control rate is greater than or equal to 40% and less than 60%; • Level 2: growth control rate is greater than or equal to 20% and less than 40%; • Level 1: growth control rate is greater than or equal to 5% and less than 20%; • Level 0: growth control rate is less than 5%.
(§2) The above growth control rates are fresh weight control rates.
(§3) Experiment on weeding effect in post-emergence stage:
(§4) Monocotyledonous and dicotyledonous weed seeds (Descurainia sophia, Capsella bursa-pastoris, Abutilon theophrasti, Galium aparine, Stellaria media, Lithospermum arvense, Rorippa indica, Alopecurus aequalis, Alopecurus japonicus, Beckmannia syzigachne, Sclerochloa dura, Conyza Canadensis, Phleum paniculatum, Veronica didyma Tenore, Bromus japonicus, Aegilops tauschii, Phalaris arundinacea, Amaranthus retroflexus, Chenopodium album, Commelina communis, Sonchus arvensis, Convolvulus arvensis, Cirsium setosum, Solanum nigrum, Acalypha australis, Digitaria sanguinalis, Echinochloa crusgalli, Setaria viridis, Setaria glauca, Leptochloa chinensis, Monochoria vaginalis, Sagittaria trifolia, Scirpus juncoides, Cyperus rotundus, Cyperus iria, Cyperus difformis, Fimbristylis, Portulaca oleracea, Xanthium sibiricum, Pharbitis nil, Conyza japonica, etc.) and major crop seeds (wheat, corn, rice, soybean, cotton, oilseed rape, millet, sorghum, potato, sesame, ricinus, etc.) were placed in plastic pots filled with soil, then covered with 0.5-2 cm of soil, allowed to grow in a good greenhouse environment. After 2 weeks of sowing, the test plants were treated in the 2-3 leaf stage. The tested compounds of the present invention were respectively dissolved in acetone, then added with Tween 80 and 1.5 liter/ha of emulsifiable concentrate of methyl oleate as synergist, diluted with a certain amount of water to obtain a solution with a certain concentration, and sprayed with a spray tower onto the plants. After the application, the plants were cultured for 3 weeks in the greenhouse, and then the experimental results of the weeding were counted. The doses of the used compounds were 500, 250, 125, 60, 15, 7.5 g a.i./ha, and the averages were obtained by repeating for three times.

Alopecurus japonicus = tested on: Alopecurus japonicus
Text: as §1, §2, §3, §4

Conyza japonica = tested on: Conyza japonica
Text: as §1, §2, §3, §4

Beckmannia syzigachne = tested on: Beckmannia syzigachne
Text: as §1, §2, §3, §4

Row | SMILES | weeding effect in post-emergence stage, Rorippa indica (activity level) (Rorippa indica; dose 15 g a.i./ha) | weeding effect in post-emergence stage, Rorippa indica (activity level) (Rorippa indica; dose 125 g a.i./ha) | weeding effect in post-emergence stage, Alopecurus japonicus (activity level) (Alopecurus japonicus; dose 125 g a.i./ha) | weeding effect in post-emergence stage, Conyza japonica (activity level) (Conyza japonica; dose 125 g a.i./ha) | weeding effect in post-emergence stage, Beckmannia syzigachne (activity level) (Beckmannia syzigachne; dose 125 g a.i./ha) | weeding effect in post-emergence stage, Alopecurus japonicus (activity level) (Alopecurus japonicus; dose 15 g a.i./ha) | weeding effect in post-emergence stage, Conyza japonica (activity level) (Conyza japonica; dose 15 g a.i./ha) | weeding effect in post-emergence stage, Beckmannia syzigachne (activity level) (Beckmannia syzigachne; dose 15 g a.i./ha) | weeding effect in post-emergence stage, Rorippa indica (activity level) (Rorippa indica; dose 7.5 g a.i./ha) | weeding effect in post-emergence stage, Alopecurus japonicus (activity level) (Alopecurus japonicus; dose 7.5 g a.i./ha) | weeding effect in post-emergence stage, Conyza japonica (activity level) (Conyza japonica; dose 7.5 g a.i./ha) | weeding effect in post-emergence stage, Beckmannia syzigachne (activity level) (Beckmannia syzigachne; dose 7.5 g a.i./ha)
1 | CCOC(=O)C1(COC(C)=O)CC(c2cc(-n3c(=O)cc(C(F)(F)F)n(C)c3=O)c(F)cc2Cl)=NO1 (racemic) [Compound 219] | 4 (Level 4: growth control rate is greater than or equal to 60% and less than 85%) | 5 (Level 5: growth control rate is above 85%) | 5 (Level 5: growth control rate is above 85%) | 5 (Level 5: growth control rate is above 85%) | 5 (Level 5: growth control rate is above 85%) | – | – | – | – | – | – | –
2 | CCOC(=O)C1(COC(=O)C(=O)O)CC(c2cc(-n3c(=O)cc(C(F)(F)F)n(C)c3=O)c(F)cc2Cl)=NO1 (racemic) [Compound 220] | – | 5 (Level 5: growth control rate is above 85%) | 5 (Level 5: growth control rate is above 85%) | 5 (Level 5: growth control rate is above 85%) | 5 (Level 5: growth control rate is above 85%) | – | – | – | – | – | – | –
3 | COC(=O)C1(OC)CC(c2cc(-n3c(=O)cc(C(F)(F)F)n(C)c3=O)c(F)cc2Cl)=NO1 (racemic) [Compound 226] | – | 5 (Level 5: growth control rate is above 85%) | 5 (Level 5: growth control rate is above 85%) | 5 (Level 5: growth control rate is above 85%) | 5 (Level 5: growth control rate is above 85%) | – | – | – | – | – | – | –
4 | CCOC(=O)C1(CC)CC(c2cc(-n3c(=S)cc(C(F)(F)F)n(C)c3=O)c(F)cc2Cl)=NO1 (racemic) [Compound 228] | 5 (Level 5: growth control rate is above 85%) | 5 (Level 5: growth control rate is above 85%) | 5 (Level 5: growth control rate is above 85%) | 5 (Level 5: growth control rate is above 85%) | 5 (Level 5: growth control rate is above 85%) | 5 (Level 5: growth control rate is above 85%) | 5 (Level 5: growth control rate is above 85%) | 4 (Level 4: growth control rate is greater than or equal to 60% and less than 85%) | – | – | – | –
5 | CCOC(=O)C1(CC)CC(c2cc(-n3c(=O)cc(C(F)(F)F)n(C)c3=S)c(F)cc2Cl)=NO1 (racemic) [Compound 229] | – | 5 (Level 5: growth control rate is above 85%) | 5 (Level 5: growth control rate is above 85%) | 5 (Level 5: growth control rate is above 85%) | 5 (Level 5: growth control rate is above 85%) | – | – | – | – | – | – | –
6 | CCOC(=O)C1(CC)CC(c2cc(-n3c(=S)cc(C(F)(F)F)n(C)c3=S)c(F)cc2Cl)=NO1 (racemic) [Compound 230] | – | 5 (Level 5: growth control rate is above 85%) | 5 (Level 5: growth control rate is above 85%) | 5 (Level 5: growth control rate is above 85%) | 5 (Level 5: growth control rate is above 85%) | – | – | – | – | – | – | –
7 | CCOC(=O)C1(C2CC2)CC(c2cc(-n3c(=S)cc(C(F)(F)F)n(C)c3=O)c(F)cc2Cl)=NO1 (racemic) [Compound 231] | 5 (Level 5: growth control rate is above 85%) | 5 (Level 5: growth control rate is above 85%) | 5 (Level 5: growth control rate is above 85%) | 5 (Level 5: growth control rate is above 85%) | 5 (Level 5: growth control rate is above 85%) | – | 5 (Level 5: growth control rate is above 85%) | 4 (Level 4: growth control rate is greater than or equal to 60% and less than 85%) | – | – | – | –
8 | CCOC(=O)[C@]1(CC)CC(c2cc(-n3c(=O)n(C)c(=S)n(C)c3=O)c(F)cc2Cl)=NO1 [3(S)] | – | 5 (Level 5: growth control rate is above 85%) | 5 (Level 5: growth control rate is above 85%) | 5 (Level 5: growth control rate is above 85%) | 5 (Level 5: growth control rate is above 85%) | – | – | – | 5 (Level 5: growth control rate is above 85%) | 5 (Level 5: growth control rate is above 85%) | 4 (Level 4: growth control rate is greater than or equal to 60% and less than 85%) | 4 (Level 4: growth control rate is greater than or equal to 60% and less than 85%)
9 | CCC[C@@]1(C(=O)OCC)CC(c2cc(-n3c(=O)n(C)c(=S)n(C)c3=O)c(F)cc2Cl)=NO1 [4(S)] | 5 (Level 5: growth control rate is above 85%) | 5 (Level 5: growth control rate is above 85%) | 5 (Level 5: growth control rate is above 85%) | 5 (Level 5: growth control rate is above 85%) | 5 (Level 5: growth control rate is above 85%) | 5 (Level 5: growth control rate is above 85%) | 5 (Level 5: growth control rate is above 85%) | 5 (Level 5: growth control rate is above 85%) | – | – | – | –
10 | CCOC(=O)[C@@]1(C2CC2)CC(c2cc(-n3c(=O)n(C)c(=S)n(C)c3=O)c(F)cc2Cl)=NO1 [17(S)] | – | 5 (Level 5: growth control rate is above 85%) | 5 (Level 5: growth control rate is above 85%) | 5 (Level 5: growth control rate is above 85%) | 5 (Level 5: growth control rate is above 85%) | – | – | – | – | – | – | –
11 | CCOC(=O)[C@]1(CBr)CC(c2cc(-n3c(=O)n(C)c(=S)n(C)c3=O)c(F)cc2Cl)=NO1 [31(S)] | 5 (Level 5: growth control rate is above 85%) | – | – | – | – | 5 (Level 5: growth control rate is above 85%) | 5 (Level 5: growth control rate is above 85%) | 5 (Level 5: growth control rate is above 85%) | – | – | – | –
12 | CCOC(=O)[C@]1(C(F)(F)F)CC(c2cc(-n3c(=O)n(C)c(=S)n(C)c3=O)c(F)cc2Cl)=NO1 [33(S)] | 5 (Level 5: growth control rate is above 85%) | – | – | – | – | 5 (Level 5: growth control rate is above 85%) | 5 (Level 5: growth control rate is above 85%) | 5 (Level 5: growth control rate is above 85%) | – | – | – | –
13 | CCOC(=O)[C@@]1(CCF)CC(c2cc(-n3c(=O)n(C)c(=S)n(C)c3=O)c(F)cc2Cl)=NO1 [34(S)] | – | 5 (Level 5: growth control rate is above 85%) | 5 (Level 5: growth control rate is above 85%) | 5 (Level 5: growth control rate is above 85%) | 5 (Level 5: growth control rate is above 85%) | – | – | – | – | – | – | –
14 | CCOC(=O)COC[C@]1(C(=O)OCC)CC(c2cc(-n3c(=O)n(C)c(=S)n(C)c3=O)c(F)cc2Cl)=NO1 [54(S)] | 5 (Level 5: growth control rate is above 85%) | – | – | – | – | 5 (Level 5: growth control rate is above 85%) | 5 (Level 5: growth control rate is above 85%) | 5 (Level 5: growth control rate is above 85%) | – | – | – | –
